Assay results from ChEMBL document CHEMBL5729726, “Tricyclic compounds as histone methyltransferase inhibitors” (2023).
pIC50: −log10 of the molar value.

target: T1, Histone-lysine N-methyltransferase EHMT2 (Homo sapiens, UniProt Q96KQ7); assay: Enzymatic Activity Assay: For the assay, the following buffer was used to set up reactions: 50 mM Tris-HCl pH9, 50 mM NaCl, 0.01% Tween-20 and 1 mM DTT (added fresh prior to starting the reactions). The assay is set up by adding a final concentration of 0.15 nM G9a, 15 uM S-adenosyl-methionine and 100 nM biotinylated histone 3 peptide (1-21). The reaction is incubated at rt for 1 hour and subsequently quenched with the acceptor beads (anti-H3k9me2 AlphaLISA acceptor beads, Perkin Elmer #AL117) at a final concentration of 20 ug/mL. The acceptor beads are incubated for 1 hour. After 1 hour, the donor beads are added at a final concentration of 20 ug/mL (Alpha Streptavidin donor beads, PerkinElmer #6760002). Donor beads are incubated for 0.5 hours. Both donor and acceptor beads are resuspended in AlphaLISA 5X Epigenetics Buffer 1 Kit (PerkinElmer #AL008) prior to addition to the reaction. All manipulations and incubations with the donor and acceptor beads are done in subdued light. Signal is detected in an EnVision plate reader in Alpha mode.
T1 sequence (Q96KQ7 whole entry): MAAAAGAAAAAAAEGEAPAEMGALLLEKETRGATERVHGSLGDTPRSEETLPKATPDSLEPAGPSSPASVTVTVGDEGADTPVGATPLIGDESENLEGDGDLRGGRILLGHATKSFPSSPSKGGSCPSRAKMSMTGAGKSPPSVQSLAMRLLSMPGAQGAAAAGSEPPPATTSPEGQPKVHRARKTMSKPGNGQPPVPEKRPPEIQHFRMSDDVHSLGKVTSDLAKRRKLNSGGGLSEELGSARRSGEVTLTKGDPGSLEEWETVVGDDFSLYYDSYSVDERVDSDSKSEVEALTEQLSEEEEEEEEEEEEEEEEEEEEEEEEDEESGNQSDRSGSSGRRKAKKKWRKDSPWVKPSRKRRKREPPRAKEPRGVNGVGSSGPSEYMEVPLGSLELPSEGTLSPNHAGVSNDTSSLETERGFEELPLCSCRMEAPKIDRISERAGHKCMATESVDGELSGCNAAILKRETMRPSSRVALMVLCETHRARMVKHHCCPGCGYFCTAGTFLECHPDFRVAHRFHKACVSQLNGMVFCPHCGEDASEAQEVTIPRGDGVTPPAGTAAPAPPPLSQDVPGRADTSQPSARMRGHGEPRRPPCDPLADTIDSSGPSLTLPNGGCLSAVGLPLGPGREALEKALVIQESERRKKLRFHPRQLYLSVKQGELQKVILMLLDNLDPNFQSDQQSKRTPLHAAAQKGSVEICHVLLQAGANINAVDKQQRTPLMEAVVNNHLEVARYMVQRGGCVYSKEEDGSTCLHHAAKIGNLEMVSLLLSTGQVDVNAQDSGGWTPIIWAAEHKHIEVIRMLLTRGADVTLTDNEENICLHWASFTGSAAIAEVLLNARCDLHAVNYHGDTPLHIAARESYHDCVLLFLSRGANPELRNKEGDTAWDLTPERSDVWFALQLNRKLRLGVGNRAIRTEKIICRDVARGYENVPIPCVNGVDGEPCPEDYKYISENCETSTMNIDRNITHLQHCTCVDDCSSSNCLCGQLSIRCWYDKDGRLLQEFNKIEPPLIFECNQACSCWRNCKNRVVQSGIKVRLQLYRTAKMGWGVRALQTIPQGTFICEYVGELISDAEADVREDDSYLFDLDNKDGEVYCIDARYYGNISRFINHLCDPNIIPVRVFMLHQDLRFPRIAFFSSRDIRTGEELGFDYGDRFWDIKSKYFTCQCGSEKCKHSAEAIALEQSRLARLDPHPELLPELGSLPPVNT

SMILES | pIC50
COc1cc2nc3c(c(NC4CCN(C5CCOC5)CC4)c2cc1OC)CCC3 (centres undefined) | 6.21
COc1cc2nc3c(c(NCC4CN(c5ccccc5F)C4)c2cc1OC)CCC3 | 5.76
COc1cc2nc3c(c(NC4CCN(C(C)C)CC4)c2cc1OC)CCCC3 | ≤ 5.00
COc1cc2nc3c(c(NC4CC(C)(C)NC(C)(C)C4)c2cc1OC)CCC3 | 7.27
